For series [1], the system named is Entamoeba histolytica HK-9 strain. The series is described as follows: In vitro antiamoebic activity (parasite count, trypan blue). The format is cell-based. The note with it: 72 hours at 36-37 °C, six determinations, read-out: Mean IC50 ± SD, Entamoeba histolytica. How it is done:
(§1) Entamoeba histolytica HK-9 strain (ATCC number 30015) was cultured in LYI-S-2 medium supplemented with antibiotics. Giardia intestinalis WB strain (ATCC number 30957) was grown in a modified YI-S medium with antibiotics. Both parasites were cultivated in 15-mL screw-capped borosilicate glass tubes containing 13 mL medium. The tubes were incubated on a 15º horizontal slant at (36-37) ºC. Culture maintenance and subculturing was performed as described Entamoeba and Giardia were harvested from confluent cultures by chilling of the tubes on ice for 5-10 min. to detach cells, followed by centrifugation at 800 x g for 5 min.
(§2) Two milligrams of a test compound or a mixture were dissolved in 10 µL of dimethyl sulfoxide (DMSO) and completed with 1 mL growth medium. The solutions were filter sterilized using 0.22 µm syringe filters and the appropriate volumes of the solutions were taken to prepare the concentrations of each compound or reference drug in 15-mL screw-capped borosilicate glass tubes. […] For the control mixtures of the precursor compounds, 1:1 molar ratios were prepared. Each tube was inoculated with 20,000 cells of the parasite under testing (Entamoeba or Giardia). Each compound or mixture was assayed in duplicate in each of three independent experiments. In each assay, the appropriate controls were performed, including the one without any compound or mixture and another with metronidazole as the positive control. The caps of Entamoeba and Giardia tubes were tightly screwed and wrapped with Parafilm. The tubes were incubated on a 15º horizontal slant at 36-37 °C for 72 hours.
(§3) The parasites in each tube were counted using the standard hemacytometer at the 10X objective. In each count, trypan blue was employed to distinguish live from dead parasites. To permit detachment of Entamoeba and Giardia, the tubes were placed on ice for few minutes and the parasites were then centrifuged at 1000 x g for 10 min. The supernatant was discarded and 1 mL fresh medium was added to each tube. The final suspension was prepared by mixing 25 µL of the parasite suspension in each tube with 100 µL of 0.4 % trypan blue in phosphate buffered saline (PBS). The 50% inhibitory concentration (IC50) was employed as a parameter for biological activity. The IC50 is the concentration of compounds which cuts the number of parasites to half that in the negative control (growth medium + DMSO + parasites).

The subject of series [2] is Giardia intestinalis WB strain. The series is described as follows: In vitro antigiardial activity (parasite count, trypan blue). The format is cell-based. The note with it: 72 hours at 36-37 °C, six determinations, read-out: Mean IC50 ± SD, Giardia intestinalis. As for the experimental part: as §1, §2, §3
The nature of series [3]: Solubility in DMSO-aqueous medium (bioassay preparation). It counts as physicochemical. As for the experimental part: The antiamoebic and antigiardial activities of the prepared hybrid molecules 8, 10-a, 12, their precursors, and 1:1 mixtures of these precursors were tested as described, with some modifications. […] Two milligrams of a test compound or a mixture were dissolved in 10 µL of dimethyl sulfoxide (DMSO) and completed with 1 mL growth medium. […] For each preparation, concentrations of 240, 120, 60, 30, 15, 7.5, 3.5, 1.7, 0.8, 0.4, 0.2, 0.1 µg/mL medium were prepared in a final volume of 15 mL to exclude air from the tube. For the control mixtures of the precursor compounds, 1:1 molar ratios were prepared. […] Each compound or mixture was assayed in duplicate in each of three independent experiments. In each assay, the appropriate controls were performed, including the one without any compound or mixture and another with metronidazole as the positive control. The caps of Entamoeba and Giardia tubes were tightly screwed and wrapped with Parafilm. The tubes were incubated on a 15º horizontal slant at 36-37 °C for 72 hours.

Series [4] deals with Vero cells. Kind of series: Cytotoxicity assay, trypan blue exclusion. It counts as cell-based. The note with it: 48 hour incubation, six determinations, read-out: Mean IC50 ± SD, Vero cells. As for the experimental part:
(§4) The cytotoxicity of the hybrid compounds and the reference drug, metronidazole, was investigated on Hep-2 and Vero cells using the standard cytotoxicity assay and the trypan blue exclusion method. A cell suspension (10^5 cells/mL RPMI medium-10% inactivated foetal calf serum) was prepared from confluent cultures and 100 µL portions of the suspension were added to the wells of 96-well plates. The cells were incubated for 24 h at 37 °C and 5 % CO2 and the medium in each well was then replaced with fresh 150 µL medium. Solutions of the compounds or the reference drug were prepared and sterilized as described in “Antiamoebic and antigiardial activity” section above. Then, 150 µL-two fold serial dilutions of each of the compounds and the reference drug starting at a concentration of 2000 µg/mL in culture medium were prepared in the plates. After 48 hour incubation at 37 °C and 5 % CO2, the number of cells in each well was determined as follows: The medium in each well was gently replaced with 100 µL of 0.25% (w/v) trypsin-0.53 mM EDTA solution and the plates were incubated for 5 min. at 37 °C to allow cell detachment. Two-hundred microliters of trypan blue solution were added to each well and the plates were, then, placed on ice. The cells were counted in a hemacytometer at the 10X objective. Each compound was assayed in duplicate in each of three independent experiments. In each assay the negative controls (without any compound or reference drug) were included in duplicates.

For series [5], the system named is Hep-2 cells. The series is described as follows: cells. It counts as cell-based. The note with it: for IC50: 48 hour incubation, six determinations, read-out: Mean IC50 ± SD, Hep-2 cells. How it is done: as §4

Read-outs that look alike come from different tables or passages of the source.

A word on the IC50: it is the midpoint of a concentration-inhibition curve.

On to `Clc1ccc2c(N3CCNCC3)ccnc2c1` [Compound 9, 7-Chloro-4-(piperazine-1-yl) quinoline, reference compound], for which the IC50 in series [1] (Entamoeba histolytica, 72 h) worked out at 55.7 ± 5 µM; in series [2] (Giardia duodenalis, 72 h), 67.5 ± 8.67 µM.

As for `O=C(/C=C\c1ccc([N+](=O)[O-])o1)N1CCN(c2ccnc3cc(Cl)ccc23)CC1` [Compound 10-b], in series [3], the “solubility in DMSO-aqueous medium” value was “insolubility”.

For the compound `Cc1ncc([N+](=O)[O-])n1CCO` [Metronidazole, metronidazole, reference compound], the IC50 was 1500 ± 17.8 µM in series [4] (Chlorocebus sabaeus, Vero); 1460 ± 18.3 µM in series [5] (Homo sapiens, HEp-2); 5.2 ± 1.03 µM in series [1] (Entamoeba histolytica, 72 h); 5.7 ± 0.78 µM in series [2] (Giardia duodenalis, 72 h). Further, the “IC50 ratio, Hep-2 and Vero cells versus the tested parasites” value in series [5] (IC50 against Hep-2 and Vero cells over IC50 against Entamoeba and Giardia) is listed as “around 270 times”.

As to `O=C(/C=C/c1ccc([N+](=O)[O-])o1)N1CCN(c2ccnc3cc(Cl)ccc23)CC1` [Compound 10-a], the IC50 in series [4] (Chlorocebus sabaeus, Vero) is 593 ± 8.71 µM; in series [5] (Homo sapiens, HEp-2), 574 ± 7.77 µM; in series [1], 140 ± 6.37 µM; in series [1] (Entamoeba histolytica, 72 h), around 140 µM; in series [2] it was 145 ± 5.37 µM; in series [2] (Giardia duodenalis, 72 h) it was around 140 µM. Moreover, the “cytotoxicity at the lethal concentrations against the parasites” value in series [5] (Hep-2 and Vero cells) was “non-cytotoxic”.

As for `O=C(O)/C=C/c1ccc([N+](=O)[O-])o1` [Compound 7, 5-Nitro-2-furylacrilic acid, reference compound], the IC50 in series [1] (Entamoeba histolytica, 72 h) was found to be 94.3 ± 9.76 µM; in series [2] (Giardia duodenalis, 72 h) it was 88.4 ± 7.1 µM.

On to “3-(5-nitrofuran-2-yl)-N-[2-(5-nitroimidazol-1-yl)ethyl]acrylamide [Compound 8]”, for which the half-maximal inhibitory concentration (IC50) was 90.5 ± 7.83 µM in series [4], 108 ± 8.02 µM in series [5], 5.32 ± 0.21 µM in series [1] and 5.56 ± 0.37 µM in series [2].

As to `Cc1ncc([N+](=O)[O-])n1CCN` [Compound 6, 2-(2-Methyl-5-1H-nitroimidazolyl)ethylamine, reference compound], the half-maximal inhibitory concentration (IC50) is 18.2 ± 2.28 µM in series [1] (Entamoeba histolytica, 72 h) and 18.5 ± 1.43 µM in series [2] (Giardia duodenalis, 72 h).

(Values after publication PMC6254164, “Synthesis of Novel Hybrid Molecules from Precursors With Known Antiparasitic Activity” (Molecules, 2009).)
